Where “and” joins values, the source holds several entries; their conditions need not be identical. Identical values can stand only once.
Legend:
[1] = system: patients with MDD and an inadequate response to an SSRI or SNRI; experiment: Sheehan Disability Score (SDS): score, functional remission, days unproductive, MDD study; type: in vivo, human
Text: The SDS is well validated and widely accepted for assessing functional outcomes in patients with MDD (Weiller et al, Neuropsychiatr Dis Treat. 2017; 14:103-115). […] Routine assessments of both symptoms and function could be helpful for minimizing residual effects that increase the risk for relapse or recurrence (Sheehan et al, J Affect Disord. 2017; 215:299-313).
“Functional remission” as used herein refers to remission in functional impairment. Functional remission is defined as a SDS total score of 6 or less at endpoint. (Sheehan et al. Human Psychopharmacology 2016, 31, 53-63).
All patients continued on their SSRI or SNRI at a stable dose for the duration of the study.
Clinic visits occurred weekly from Weeks 1 through 10. The MADRS was administered at screening and baseline. The HAMD-17, SDS, CGI, and KSS were administered at baseline and weekly during the study. Other endpoints such as the SF-12 were administered at baseline and Weeks 5 and 10. Treatment response was defined as a reduction of 50% from baseline for the HAMD-17 total score, and remission was defined as a HAMD-17 total score
In Stage 1, weeks 1-5 is the study weeks 1-5 and in Stage 2, weeks 1-5 is the study weeks 6-10. 95% CI refers to Newcombe 95% confidence interval. The p-value is from stage-specific Pearson's Chi-square test. Functional remission is defined as SDS total score […].
Higher SDS mean score indicates greater functional impairment. […] In Stage 1, weeks 1-5 is the study weeks 1-5 and in Stage 2, weeks 1-5 is the study weeks 6-10. LSM from the stage-specific MMRM analysis with the change from baseline as the outcome; treatment group, visit, treatment-by-visit interaction, baseline SDS Day Unproductive, and baseline SDS Days Unproductive-by-visit interaction as the factors. 2-sided p-value for treatment difference from the stage-specific MMRM analysis.

[2] = system: patients with MDD and an inadequate response to an SSRI or SNRI; experiment: HAMD-17 Item 14 (sexual interest), Study ACP-103-042; type: in vivo, human; settings: Week 5
Text: The determination of the subject's status and eligibility for randomization in Stage 2 was made in a double-blind manner.

[3] = molecular target: norepinephrine transporter (Homo sapiens, UniProt P23975); experiment: Receptor profile: affinity (Ki) at NET; type: binding; settings: data on file
Sequence of norepinephrine transporter (P23975 whole entry, species assumed): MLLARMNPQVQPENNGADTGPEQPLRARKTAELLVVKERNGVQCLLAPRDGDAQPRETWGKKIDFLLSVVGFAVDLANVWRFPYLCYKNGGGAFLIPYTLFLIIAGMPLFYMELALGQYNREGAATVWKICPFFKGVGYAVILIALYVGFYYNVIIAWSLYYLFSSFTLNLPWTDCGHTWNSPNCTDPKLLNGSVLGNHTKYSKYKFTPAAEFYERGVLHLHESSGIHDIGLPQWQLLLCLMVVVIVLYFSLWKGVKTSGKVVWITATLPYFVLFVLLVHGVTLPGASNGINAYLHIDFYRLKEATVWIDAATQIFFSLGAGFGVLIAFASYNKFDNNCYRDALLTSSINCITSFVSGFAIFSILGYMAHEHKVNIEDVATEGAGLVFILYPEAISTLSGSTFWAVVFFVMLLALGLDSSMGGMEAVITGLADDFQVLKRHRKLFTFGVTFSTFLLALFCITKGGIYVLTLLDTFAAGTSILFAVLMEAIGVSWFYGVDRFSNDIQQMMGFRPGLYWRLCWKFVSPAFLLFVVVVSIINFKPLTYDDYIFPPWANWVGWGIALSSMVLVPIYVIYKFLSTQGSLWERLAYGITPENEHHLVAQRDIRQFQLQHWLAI

[4] = system: patients with MDD and an inadequate response to an SSRI or SNRI; settings: in vivo
[5] = system: adults with Parkinson's disease and depression; experiment: SCOPA Sleep, open-label study in Parkinson's disease and depression; type: in vivo, human; settings: interim, first 31 patients
Text: “Scale of Outcomes in Parkinson's Disease (SCOPA) Sleep” is a scale developed for research in Parkinson disease to evaluate nighttime sleep and daytime sleepiness and has high internal consistency for the nighttime sleep and daytime sleepiness scales (0.88 and 0.91, respectively), and test-retest reliabilities (0.94 and 0.89, respectively). Scores on the SCOPA Sleep Scale show high correlations between the nighttime sleep scale and the Pittsburgh Sleep Quality Index (0.83), and between the daytime sleepiness scale and the Epworth Sleepiness Scale (0.81). The coefficient of variation of both the nighttime sleep and the daytime sleepiness scale can be higher than that of the Pittsburgh Sleep Quality Index and the Epworth Sleepiness Scale, indicating a better ability to detect differences between individuals. (Marinus J, Visser M, van Hilten J J, Lammers G J, Stiggelbout A M. Sleep. 2003; 26(8):1049-1054.)
Subjects can receive treatment as either monotherapy or adjunctively if inadequately controlled with SSRI/SNRI monotherapy. A primary endpoint of the study is change from baseline to Week 8 in the Hamilton Depression Scale 17-item (HAMD-17) total score. Secondary endpoints include Clinical Global Impression (CGI) scales (improvement and severity), Scale of Outcomes in PD-Sleep (SCOPA), and quality of life as measured by EuroQol-5 dimensions-5 levels (EQ-5D-5L).
At approximately 2, 4, and 6 weeks after start of dosing of study drug subjects returned to the clinic for assessments. Safety measures, HAMD-17, C-SSRS (Columbia Suicide Severity Rating Scale), CGI-S(Clinical Global Impression-Severity), and CGI-I (Clinical Global Impression-Improvement) were evaluated at all visits. […]
Continuous secondary efficacy endpoints (CGI-I, CGI-S, SCOPA, and EQ-5D-5L) were analyzed using similar MMRM models as for the primary efficacy endpoint, except that the Baseline value of the endpoint being analyzed was included in the model as a covariate instead of the Baseline HAMD-17 total score. […]

Question: What does the source list for `CC(C)COc1ccc(CNC(=O)N(Cc2ccc(F)cc2)C2CCN(C)CC2)cc1` [pimavanserin, N-(4-Fluorophenylmethyl)-N-(1-methylpiperidin-4-yl)-N′-(4-(2-methylpropyloxy)phenylmethyl)carbamide]?
Answer: SDS Days Unproductive Effect Size (Cohen's d) ([1]; Stage 1): 0.518; SDS Days Unproductive Change from Baseline to Week 5 Mean (SE) ([1]; Stage 1, 34 mg QD + SSRI/SNRI): −2.364 (0.3253); SDS Days Unproductive Change from Baseline to Week 5 Median ([1]; Stage 1, 34 mg QD + SSRI/SNRI): −2.000; SDS Days Unproductive Week 5 Mean (SE) ([1]; Stage 1, 34 mg QD + SSRI/SNRI): 0.956 (0.2356); SDS Days Unproductive Week 5 Median ([1]; Stage 1, 34 mg QD + SSRI/SNRI): 0.000; SDS score LSmean (SE) change from baseline to Week 5 ([1]; Stage 1, 34 mg QD + SSRI/SNRI): −3.3 (0.35); SDS score LSmean (SE) change from baseline to Week 5 ([1]; Stage 1, 34 mg QD + SSRI/SNRI, listed as Pimavanserin): −3.254; SDS effect size (Cohen's d) ([1]; Stage 1 Week 5): 0.498 and ~0.5; SDS individual items (work/school, social life, family life/home responsibilities) effect size vs placebo ([1]; Stage 1 Week 5): a positive effect size was observed for all the 3 individual items; SDS effect size (Cohen's d) ([1]; Stage 1 Week 5, listed as Pimavanserin): 0.498; SDS Days Unproductive Effect Size (Cohen's d) ([1]; Stage 2): 0.167; SDS effect size (Cohen's d) ([1]; Stage 2): 0.311; SDS Days Unproductive Change from Baseline to Week 5 Mean (SE) ([1]; Stage 2, 34 mg QD + SSRI/SNRI): −0.655 (0.4689); SDS Days Unproductive Change from Baseline to Week 5 Median ([1]; Stage 2, 34 mg QD + SSRI/SNRI): −1.000; SDS Days Unproductive Week 5 Mean (SE) ([1]; Stage 2, 34 mg QD + SSRI/SNRI): 2.276 (0.4295); SDS Days Unproductive Week 5 Median ([1]; Stage 2, 34 mg QD + SSRI/SNRI): 2.000; SDS Score LSM change from baseline to Week 5 ([1]; Stage 2, 34 mg QD + SSRI/SNRI): −0.901; Functional remission: Remitter (%) ([1]; Week 1, Stage 1, 34 mg QD + SSRI/SNRI): 9 (17.6) %; Functional remission: Remitter (%) ([1]; Week 1, Stage 2, 34 mg QD + SSRI/SNRI): 2 (6.9) %; Functional remission: Remitter (%) ([1]; Week 2, Stage 1, 34 mg QD + SSRI/SNRI): 21 (41.2) %; Functional remission: Remitter (%) ([1]; Week 2, Stage 2, 34 mg QD + SSRI/SNRI): 3 (10.3) %; Functional remission: Remitter (%) ([1]; Week 3, Stage 1, 34 mg QD + SSRI/SNRI): 20 (39.2) %; Functional remission: Remitter (%) ([1]; Week 3, Stage 2, 34 mg QD + SSRI/SNRI): 3 (10.3) %; Functional remission: Remitter (%) ([1]; Week 4, Stage 1, 34 mg QD + SSRI/SNRI): 20 (39.2) %; Functional remission: Remitter (%) ([1]; Week 4, Stage 2, 34 mg QD + SSRI/SNRI): 4 (13.8) %; Functional remission: Remitter (%) ([1]; Week 5, Stage 1, 34 mg QD + SSRI/SNRI): 22 (43.1) %; Functional remission: Remitter (%) ([1]; Week 5, Stage 2, 34 mg QD + SSRI/SNRI): 6 (20.7) %; SDS effect size, treatment difference in LSmean change from baseline to Week 10 ([1]; continuous treatment for 10 weeks in Stages 1 and 2): 0.469; Weighted Treatment Diff in Remission Rate (%) ([1]; functional remission, Overall Treatment Comparison at Week 5 (Linear Combination Test)): 18.6%; Diff (PIM 34 mg-Placebo) in Remission Rate (%) ([1]; functional remission, Week 1, Stage 1): 5.1%; Diff (PIM 34 mg-Placebo) in Remission Rate (%) ([1]; functional remission, Week 1, Stage 2): −3.4%; Diff (PIM 34 mg-Placebo) in Remission Rate (%) ([1]; functional remission, Week 2, Stage 1): 27.4%; Diff (PIM 34 mg-Placebo) in Remission Rate (%) ([1]; functional remission, Week 2, Stage 2): 0.0%; Diff (PIM 34 mg-Placebo) in Remission Rate (%) ([1]; functional remission, Week 3, Stage 1): 24.1%; Diff (PIM 34 mg-Placebo) in Remission Rate (%) ([1]; functional remission, Week 3, Stage 2): 0.0%; Diff (PIM 34 mg-Placebo) in Remission Rate (%) ([1]; functional remission, Week 4, Stage 1): 19.5%; Diff (PIM 34 mg-Placebo) in Remission Rate (%) ([1]; functional remission, Week 4, Stage 2): 6.9%; Diff (PIM 34 mg-Placebo) in Remission Rate (%) ([1]; functional remission, Week 5, Stage 1): 23.4%; Diff (PIM 34 mg-Placebo) in Remission Rate (%) ([1]; functional remission, Week 5, Stage 2): 13.8%; SDS LSmean difference (SE) pimavanserin vs placebo ([1]; overall (weighted Stage 1 and Stage 2)): −0.8 (0.29); HAMD-17 Item 14 (sexual interest) Cohen's d effect size [2]: 0.574; HAMD-17 Item 14 (sexual interest) LS Mean (SE) change from baseline ([2]; 34 mg QD + SSRI/SNRI): −0.7 (0.12); Ki [3]: > 1000 nM; deaths reported in the study [4]: no deaths; SCOPA-Daytime Sleepiness change from Baseline to Week 8 [5]: −2.1 (0.4); SCOPA-Global Sleep Quality change from Baseline to Week 8 [5]: −1.0 (0.4); SCOPA-Nighttime Sleep change from Baseline to Week 8 [5]: −2.1 (0.7)

Source: US20220016101A1 (ACADIA Pharmaceuticals Inc., priority 2018, published 2022)
